From patent US20220170911A1, “CELL CONSTRUCT AND CELL CONSTRUCT PRODUCTION METHOD” (priority 2019, published 2022)

How the values were obtained:
Format in all cases: cell-based, human
[1] = tested on: cell structure including vascular endothelial cells and tissue product including no vascular endothelial cell; assay: Evaluation of effect of uptake inhibitor for fatty acid (BODIPY-modified fatty acid fluorescence); settings: 100 ng/mL TNFα in DMEM with 4 μM BODIPY-modified fatty acid; day 14; 0, 5, 30, 60 minutes; with and without vascular endothelial cells; control without TNFα defined as 100%; FIG. 18
Method: A cell structure including vascular endothelial cells and a tissue product including no vascular endothelial cell were produced in the same manner as in Test Example 10, and evaluation was carried out with the cell structure and tissue product on day 14 after the beginning of formation thereof sCMF produced by using a sponge fragment of porcine skin-derived collagen I was used.
Into DMEM culture medium containing 4 μM BODIPY-modified fatty acid in place of NBD-modified glucose in (Evaluation of Glucose Uptake) of Test Example 10, 100 ng/mL TNFα as an uptake inhibitor for fatty acid was introduced. The cell structure including vascular endothelial cells and the tissue product including no vascular endothelial cell were each incubated, and fluorescence measurement was carried out after 0 minutes, 5 minutes, 30 minutes, and 60 minutes in the same manner as in Test Example 10. The number of samples for each treatment was 5 (n=5), and fatty acid uptake in the same control culture medium as in Test Example 10, which contained no TNFα, was defined as 100%.

[2] = tested on: tissue product including no vascular endothelial cell; assay: Evaluation of glucose uptake (NBD-modified glucose fluorescence) with uptake inhibitor and promoter; settings: 125 μM apigenin and/or 10 μg/mL insulin in DMEM with 0.1 mg/mL NBD-modified glucose; day 7 tissue product; 20-135 minutes; control medium defined as 100%; FIG. 16/17(a)
Method: A cell structure provided with a vascular network was produced with the same procedure as in Test Example 2, except that 6500 cells of mature adipocytes, 5500 cells of adipose stem cells, 2750 cells of vascular endothelial cells, 0.025 mg of the defibered collagen component (sCMF), 0.015 mg of fibrinogen, and 0.007 U of thrombin were used per tissue. The materials were prepared for 96 wells all at once to afford a gel, which was seeded on each well of a 96-well plate. […] The cell structures were incubated, and fluorescence measurement was carried out after 10 minutes, 30 minutes, 60 minutes, 120 minutes, and 150 minutes. Before the measurement at each timing, the culture medium for a cell structure to be subjected to measurement was substituted with 300 μL of PBS buffer, and the fluorescence was measured with a plate reader (Synergy HTX, manufactured by BioTek Instruments, Inc.) to determine the cumulative value of fluorescence intensity in the image. […] The tissue product was incubated, and fluorescence measurement was carried out after 20 minutes, 45 minutes, 70 minutes, 90 minutes, and 135 minutes in the same manner as in Test Example 10. […]

[3] = tested on: tissue product including no vascular endothelial cell; assay: Evaluation of release of glucose and fatty acid taken up, with release promoter; settings: 2 mM isoproterenol, then 30 minutes incubation, day 14 tissue product
Method: A tissue product was produced in the same manner as for the cell structure in Test Example 10, except that no vascular endothelial cell was included, and evaluation was carried out with the tissue product on day 14 after the beginning of formation thereof.
In order to measure the amount of release of glucose once taken up, incubation was performed on DMEM culture medium supplemented with 0.1 mg/mL NBD-modified glucose as in Test Example 10 for 60 minutes, and then the culture medium was substituted again with 300 μL of DMEM culture medium supplemented with NBD-modified glucose, or with 300 μL of DMEM culture medium supplemented with 2 mM isoproterenol and NBD-modified glucose. Thereafter, incubation was performed for 30 minutes to allow glucose to be released from the cellular tissue, and fluorescence measurement was carried out. […]
The number of samples for each treatment was 5 […], fluorescence intensity for the tissue product with the culture medium containing no isoproterenol was defined as 100%, and what % of the amount of uptake was released was determined by comparing with fluorescence intensity for the tissue product with the culture medium containing isoproterenol. […]

[4] = tested on: tissue product including no vascular endothelial cell; assay: Evaluation of fatty acid uptake (BODIPY-modified fatty acid fluorescence) with uptake promoter; settings: 10 μg/mL insulin in DMEM with 4 μM BODIPY-modified fatty acid; day 7 tissue product; 5, 30, 60 minutes; control without insulin defined as 100%; FIG. 17(b)
Method: A tissue product including no vascular endothelial cell was produced in the same manner as in Test Example 10, and evaluation was carried out with the tissue product on day 7 after the beginning of formation thereof sCMF produced by using a mixture of a sponge fragment of porcine skin-derived collagen I and a sponge fragment of porcine skin-derived collagen III was used.
A tissue product was incubated in the same manner as in Test Example 10, except that, in place of NBD-modified glucose in Test Example 10, 4 μM BODIPY-modified fatty acid (Invitrogen (R) BODIPY (R) 500/510 Cl, C12 (4,4-Difluoro-5-Methyl-4-Bora-3a,4a-Diaza-s-Indacene-3-Dodecanoi c Acid), Thermo Fisher Scientific) was added to DMEM culture medium, and fluorescence measurement was carried out after 5 minute, 30 minutes, and 60 minutes. Further, 10 μg/mL insulin was added to the DMEM culture medium containing 4 μM BODIPY-modified fatty acid, and fluorescence measurement was carried out in the same manner.
The number of samples for each treatment was 5 (n=5), and fatty acid uptake in the same control culture medium as in Test Example 10, which contained no insulin, was defined as 100%.

TNFα was tested, and the “amount of uptake of fatty acid” value [1] was “reduced”.
In the case of O=c1cc(-c2ccc(O)cc2)oc2cc(O)cc(O)c12 [apigenin], the “amount of uptake of glucose” value [2] is reported as “reduced”.
For CC(C)NCC(O)c1ccc(O)c(O)c1 (stereo not drawn) [isoproterenol], the “release of fatty acid taken up” value ([3]; 60 minutes uptake of BODIPY-modified fatty acid, FIG. 19(b)) was “promoted” and the “release of glucose taken up” value ([3]; 60 minutes uptake of NBD-modified glucose, FIG. 19(a)) was “promoted”.
With Insulin from bovine pancreas the “amount of uptake of glucose” value [2] was “increased” and the “amount of fatty acid uptake” value [4] was “promoted”.
